Test results: the NIST ThermoML archive (doi:10.1016/j.jct.2016.06.031)
± gives the expanded uncertainty stated by the source.

Legend:
[1] = Liquid; for mass density: 101.33 kPa, Vibrating tube method; for vapor or sublimation pressure: Closed cell (Static) method
[2] = refractive index (Na D-line) (dimensionless); settings: 101.33 kPa, Liquid, Standard Abbe refractometry

| Compound | mass density ([1]; 293.15 K) | mass density ([1]; 295.15 K) | mass density ([1]; 297.15 K) | mass density ([1]; 298.15 K) | mass density ([1]; 300.4 K) | refractive index ([2]; 293.15 K) | refractive index ([2]; 298.15 K) | vapor or sublimation pressure ([1]; 273.06 K) | vapor or sublimation pressure ([1]; 278.07 K) | vapor or sublimation pressure ([1]; 283.07 K) | vapor or sublimation pressure ([1]; 288.07 K) | vapor or sublimation pressure ([1]; 292.07 K) |
| --- | --- | --- | --- | --- | --- | --- | --- | --- | --- | --- | --- | --- |
| CCCCCCC [heptane] | 683.8 ± 0.9 kg/m3 | 681.6 ± 0.9 kg/m3 | 679.9 ± 0.9 kg/m3 | 679.1 ± 0.9 kg/m3 | 677.1 ± 0.9 kg/m3 | 1.3878 ± 0.0007 | 1.3852 ± 0.0007 |  |  |  |  |  |
| FC(F)(F)C(F)(F)F [hexafluoroethane] |  |  |  |  |  |  |  | 1839 ± 6 kPa | 2100 ± 6 kPa | 2388 ± 7 kPa | 2701 ± 7 kPa | 2972 ± 8 kPa |
